# Data reported in patent US20180318241A1, “TREATMENT OF NERVOUS SYSTEM DISORDERS USING THYROID HORMONE NEUTRAL DOSES OF RXR AGONISTS” (Io Therapeutics, Inc., priority 2015, published 2018).
# “Also recorded” adds a separate entry of the source.
# Columns and labels:
# [1] = tested on: cuprizone+rapamycin demyelination in C57BL/6J mice; assay type: in vivo; details: 6 weeks concurrent with CR
# Text: Animals (8 week-old male C57BL/6J mice) were subjected to cuprizone diet plus rapamycin injections (CR) for 6 weeks to induce demyelination. […] All animals were sacrificed after 6 weeks of CR to evaluate axonal integrity and microglial/macrophage activity in the white matter (corpus callosum, CC).
# A total of 50 animals were included in the study, where 43 animals received CR demyelination for 6 weeks. During demyelination, a subset (n=7) of animals were kept on normal diet to serve as naïve age-matched controls.
# [2] = tested on: ethidium bromide induced demyelination of caudal cerebellar peduncles in rats; assay: Focal ethidium bromide induced demyelination, remyelination analysis; assay type: in vivo, rat
# Protocol: The experiment uses rats of relatively advanced age (1 year) since such rats undergo remyelination in a less efficient manner, thereby providing data that are more relevant to the clinical treatment of human patients with multiple sclerosis or other demyelination disorders.
# Focal demyelination is induced in one year old rats (approximately 300 g in weight) by injecting stereotactically 5 μl of ethidium bromide solution (0.01% vol/vol in saline) in a bilateral manner into the caudal cerebellar peduncles (CCP). […] The rats are killed on day 24 post-ethidium bromide treatment for analysis of remyelination by quantitative polymerase chain reaction (qPCR) and microscopy. Serum T4 levels are determined before initiation of treatment and weekly thereafter and at study termination.
# [3] = tested on: cuprizone+rapamycin demyelination in C57BL/6J mice; assay: Cuprizone/rapamycin 12-week demyelination model, remyelination; assay type: in vivo, mouse; details: 10 mg/kg PO daily for 6 weeks after 12 weeks CR
# Text: All animals were sacrificed after 12 weeks of CR or after further 6 weeks of treatment to evaluate myelin in white matter (corpus callosum) and gray matter (hippocampus and cortex). In addition, the size of myelinated axons was quantified and the large myelinated axons were further assessed by 3D-electron microscopy (3D-EM). A total of 40 animals were included in the study, where all 40 animals received CR demyelination for 12 weeks. After demyelination, a subset (n=10) of animals are sacrificed to serve as controls to assess baseline demyelination. […] Floating brain sections are immunostained with myelin prolipid protein (PLP) to visualize and quantify myelin in gray matter, hippocampus (FIG. 16A) and cortex (FIG. 16B).
# FXR/RXR = molecular target: T1, FXR/RXR (Homo sapiens, UniProt P19793); assay: Permissive heterodimer transactivation assay in CV-1 cells; assay type: cell-based; details: 20 hr, relative to GW4064
# T1 construct: expressed in transfected cells; host or cells: CV-1
# T1 sequence (P19793 1-462): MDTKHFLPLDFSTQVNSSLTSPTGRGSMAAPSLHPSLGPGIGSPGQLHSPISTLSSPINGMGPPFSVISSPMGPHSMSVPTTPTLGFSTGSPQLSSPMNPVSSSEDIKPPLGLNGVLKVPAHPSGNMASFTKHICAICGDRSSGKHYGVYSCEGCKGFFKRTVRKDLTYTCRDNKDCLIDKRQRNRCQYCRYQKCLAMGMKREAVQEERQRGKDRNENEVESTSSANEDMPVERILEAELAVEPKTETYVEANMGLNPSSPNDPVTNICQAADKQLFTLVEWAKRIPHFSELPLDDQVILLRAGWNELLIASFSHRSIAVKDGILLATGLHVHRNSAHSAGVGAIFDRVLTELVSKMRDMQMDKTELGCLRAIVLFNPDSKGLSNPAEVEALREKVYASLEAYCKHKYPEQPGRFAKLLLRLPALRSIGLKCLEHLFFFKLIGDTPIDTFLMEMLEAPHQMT
# T1 sequence (Q96RI1 1-486 partner): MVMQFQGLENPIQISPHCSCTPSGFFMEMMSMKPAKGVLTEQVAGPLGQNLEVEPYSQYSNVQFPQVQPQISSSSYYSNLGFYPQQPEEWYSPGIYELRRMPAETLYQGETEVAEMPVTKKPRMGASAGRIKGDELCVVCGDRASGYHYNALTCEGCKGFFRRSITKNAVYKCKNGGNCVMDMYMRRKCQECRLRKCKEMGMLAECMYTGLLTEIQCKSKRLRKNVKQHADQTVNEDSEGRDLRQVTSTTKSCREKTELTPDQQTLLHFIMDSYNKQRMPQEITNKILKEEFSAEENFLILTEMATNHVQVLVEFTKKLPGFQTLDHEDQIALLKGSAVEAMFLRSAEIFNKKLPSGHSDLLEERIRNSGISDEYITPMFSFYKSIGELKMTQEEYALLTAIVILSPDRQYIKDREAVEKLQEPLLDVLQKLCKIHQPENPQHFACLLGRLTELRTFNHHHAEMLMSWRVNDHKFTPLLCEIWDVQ
# Text: (§1) For PPARγ: CV-1 cells were transfected with 3×(rAOX/DR1)-tk-Luc reporter gene and an expression vector for PPARγ. For FXR:CV-1 cells were transfected with 3×(IBABP/IRI)-tk-Luc reporter gene and vectors for FXR and RXRα. For LXR:CV-1 cells were transfected with 3×(PLTP/LXRE)-tk-Luc reporter gene with vectors for LXRα or LXRβ. For Nurr1: COS7 cells were transfected with 3×NBRE-tk-luc reporter gene and full length Nurr-1 with or without full-length RXRα plasmid. […] Luciferase data were normalized to co-transfected β-gal activity. Luciferase activity was expressed as percent of maximal activity obtained using specific agonists. Rosiglitazone (PPARγ), GW4064 (FXR), T0901317 (LXR).
# LXRα/RXR = assay: as above; assay type: cell-based; details: 20 hr, relative to T0901317
# Text: as §1
# LXRβ/RXR = assay: as above; assay type: cell-based; details: 20 hr, relative to T0901317
# Text: as §1
# EAE in B6 mice = assay: EAE dose titration in B6 mice with spleen and CNS analysis; assay type: in vivo; details: 200 μg/day vs vehicle
# Protocol: A dose titration experiment was also conducted in EAE mice. EAE was induced in 28 B6 mice with MOG/CFA and PT as above. Mice were scored on day 7 as indicated above and divided into groups by score so means are as equal as possible.
# At the completion of the experiment, the vehicle control and 200 μg/day groups were euthanized and spleen and CNS samples obtained.
# [4] = tested on: oligodendrocyte precursor cells (OPCs); assay: OPC differentiation into oligodendrocytes (PLP-EGFP); assay type: cell-based, mouse
# Text: OPCs were generated from a neurosphere culture of E14.5 PLP-EGFP (on C57BL/6J background) mouse brains. […] The EGFP expressing cells were quantified with Cellomics Neuronal Profiling Algorithm.
# The EGFP expressing cells in controls and all compounds were quantified with Cellomics Neuronal Profiling Algorithm.
# [5] = tested on: multiple sclerosis (MS) patients; assay: Placebo-controlled clinical trial of thyroid hormone neutral doses in relapsing-remitting MS; assay type: in vivo, human; details: 30 to 180 days
# Protocol: Patients with relapsing-remitting MS are recruited to participate in the clinical trial and are provided informed consent describing risks and potential benefits of participation. […] Patients are dosed for a minimum of 30 days, and as long as 180 days. […] Serum T4 levels will continue to be determined on a weekly basis.
# Patients are assessed for the status of myelin damage and speed of repair of demyelination in MS lesions that occur over this period of time in their brains, spinal cords, and/or optic nerves. Quantitation of myelin damage and repair is performed at baseline and periodically through the dosing, using specialized imaging methods, which specifically examine and quantitate myelin damage and repair in these parts of the nervous system. […] This compound is useful for useful for quantitating myelin repair. […] In addition to the quantitation of myelin damage and repair by imaging methods, the clinical status of the MS patients' disease progression is preliminarily evaluated using standard clinical endpoints for MS clinical trials, such as the Expanded Disability Status Scale (EDSS). The EDSS is a 10 point scale which quantitates the MS patients' levels of disability by evaluating physical activities of daily life, such as walking, swallowing, bowel and bladder function, etc.
# EAE in SJL mice = assay: EAE in SJL mice; assay type: in vivo; details: 50 μg i.p. every other day, day 8 to day 14
# Protocol: To determine whether a RXR agonist can attenuate multiple sclerosis, SJL mice were immunized to induce EAE by s.c. injection at the base of their spine with 200 μL of adjuvant containing 200 μg proteolipid proteins (139-151) (PLP peptide; Peptides International, Louisville, Ky.) and 400 μg of non-viable M. tuberculosis H37 desiccate emulsified in a mixture of incomplete Freund's adjuvant and PBS. Mice were also given 150 ng of pertussis toxin in PBS i.p. on the same day as PLP emulsion injection and 2 days later. […] Mice were scored using the scale described in Example 3.
# RARα = RARα (Homo sapiens, UniProt P10276); details: RARs (α, β, γ), at ≥1 μM
# RARα, sequence (P10276 183-417 limits assumed, species assumed): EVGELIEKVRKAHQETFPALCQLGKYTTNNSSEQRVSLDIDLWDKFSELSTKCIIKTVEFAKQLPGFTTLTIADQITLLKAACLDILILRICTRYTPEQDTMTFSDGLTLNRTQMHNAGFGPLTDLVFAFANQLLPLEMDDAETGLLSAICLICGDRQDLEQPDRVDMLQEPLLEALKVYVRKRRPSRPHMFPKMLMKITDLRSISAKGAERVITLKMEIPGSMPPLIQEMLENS
# Protocol: To determine whether a RXR agonist can mediate its effects via RXRα receptor homodimers, RXRβ receptor homodimers, RXRγ receptor homodimers, or any combination thereof, or the corresponding RAR/RXR heterodimers, receptor-mediated transactivation assays were performed. For transactivation assays assessing RXR homodimer signaling, CV-1 cells were transfected with 1) an expression construct including a full length RXRα, RXRβ, or RXRγ; and 2) a rCRBPII/RXRE-tk-Luc reporter construct that included RXR homodimer-specific RXRE/DR1 responsive element linked to a luciferase gene. For transactivation assays assessing RAR/RXR heterodimer signaling, CV-1 cells were transfected with 1) an expression construct comprising a fusion protein including an estrogen receptor (ER) DNA binding domain linked to the ligand binding domain of RARα, RARβ, or RARγ and 2) a ERE-tk-Luc reporter construct that included an estrogen receptor responsive element linked to a luciferase gene. […] Data are mean values±SE from five independent experiments.
# RXRγ = molecular target: T2, RXRγ (Homo sapiens, UniProt P48443); assay: RXR homodimer transactivation assay (rCRBPII/RXRE-tk-Luc) in CV-1 cells; assay type: cell-based
# T2 construct: an expression construct including a full length RXRα, RXRβ, or RXRγ; expressed in transfected cells; host or cells: CV-1
# T2 sequence (P48443 1-463): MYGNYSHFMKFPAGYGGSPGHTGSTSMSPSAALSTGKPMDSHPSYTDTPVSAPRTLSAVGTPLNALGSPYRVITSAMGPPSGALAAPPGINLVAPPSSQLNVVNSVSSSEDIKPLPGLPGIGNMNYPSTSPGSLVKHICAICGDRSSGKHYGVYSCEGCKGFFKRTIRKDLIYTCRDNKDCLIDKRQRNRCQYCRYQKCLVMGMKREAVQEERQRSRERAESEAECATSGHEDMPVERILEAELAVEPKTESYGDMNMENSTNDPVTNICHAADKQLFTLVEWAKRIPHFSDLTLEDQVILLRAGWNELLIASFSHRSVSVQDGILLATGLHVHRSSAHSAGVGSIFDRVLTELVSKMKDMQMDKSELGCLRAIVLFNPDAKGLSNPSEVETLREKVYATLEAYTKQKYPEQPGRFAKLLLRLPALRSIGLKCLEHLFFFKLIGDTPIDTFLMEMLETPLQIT
# Protocol: To determine whether a RXR agonist can mediate its effects via RXRα receptor homodimers, RXRβ receptor homodimers, RXRγ receptor homodimers, or any combination thereof, or the corresponding RAR/RXR heterodimers, receptor-mediated transactivation assays were performed. For transactivation assays assessing RXR homodimer signaling, CV-1 cells were transfected with 1) an expression construct including a full length RXRα, RXRβ, or RXRγ; and 2) a rCRBPII/RXRE-tk-Luc reporter construct that included RXR homodimer-specific RXRE/DR1 responsive element linked to a luciferase gene. For transactivation assays assessing RAR/RXR heterodimer signaling, CV-1 cells were transfected with 1) an expression construct comprising a fusion protein including an estrogen receptor (ER) DNA binding domain linked to the ligand binding domain of RARα, RARβ, or RARγ and 2) a ERE-tk-Luc reporter construct that included an estrogen receptor responsive element linked to a luciferase gene. The ER-RAR fusion proteins provided an accurate readout of only the transfected ER-RAR. […] Data are mean values±SE from five independent experiments.
# Nurr1/RXR = Nurr1/RXR (Homo sapiens, UniProt P19793); assay: Permissive heterodimer transactivation assay in COS7 cells; assay type: cell-based
# Nurr1/RXR, sequence (P43354 whole entry partner, one chain of several): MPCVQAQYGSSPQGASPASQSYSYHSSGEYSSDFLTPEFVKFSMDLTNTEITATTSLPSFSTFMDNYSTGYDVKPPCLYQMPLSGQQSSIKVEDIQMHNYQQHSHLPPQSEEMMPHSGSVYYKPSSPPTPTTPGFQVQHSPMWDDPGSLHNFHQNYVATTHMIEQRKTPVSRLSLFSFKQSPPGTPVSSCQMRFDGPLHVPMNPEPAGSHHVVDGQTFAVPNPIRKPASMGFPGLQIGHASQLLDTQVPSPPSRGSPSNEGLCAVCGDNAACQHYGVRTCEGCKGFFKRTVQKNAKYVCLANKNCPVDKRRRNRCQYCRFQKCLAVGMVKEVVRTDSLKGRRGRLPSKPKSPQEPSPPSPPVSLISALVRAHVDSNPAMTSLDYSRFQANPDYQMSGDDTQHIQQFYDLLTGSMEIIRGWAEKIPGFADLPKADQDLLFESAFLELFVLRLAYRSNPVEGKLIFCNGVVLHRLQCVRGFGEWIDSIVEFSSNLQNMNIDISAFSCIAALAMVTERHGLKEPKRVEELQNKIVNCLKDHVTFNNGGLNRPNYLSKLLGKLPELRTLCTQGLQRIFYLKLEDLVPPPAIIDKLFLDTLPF
# Text: as §1
smiles,measurement,setting,value
"CC(/C=C/[C@@H]1C[C@]1(C)c1ccc2c(c1)C(C)(C)CCC2(C)C)=C\C(=O)O [IRX4204, 3,7-dimethyl-6(S),7(S)-methano,7-[1,1,4,4-tetramethyl-1,2,3,4-tetrahydronaphth-7-yl]2(E),4(E) heptadienoic acid]",levels of Iba1 staining (microglia/macrophages) in CC compared to vehicle,[1],no difference
same,number of SMI32 stained axonal ovoids in CC compared to Vehicle,[1],trend towards decreased number of axonal ovoids
same,Mbp and Pdgfra expression (real-time qPCR of lesion samples),[2],increase in Mbp expression and an increase in Pdgfra expression
same,densities of Olig2+ oligodendrocyte lineage cells and CC1+ differentiated oligodendrocytes in lesions,"[2]; oral 1-10 mg/kg/day for fourteen days, relative to vehicle",increased
same,size of myelinated axons in the corpus callosum,[3],significant increase
same,activation of FXR/RXR heterodimer,FXR/RXR,not to transactivate; also recorded: does not activate
same,activation of LXRα/RXR heterodimer,LXRα/RXR,not to transactivate; also recorded: does not activate
same,activation of LXRβ/RXR heterodimer,LXRβ/RXR,not to transactivate; also recorded: does not activate
same,co-expression of IFNγ and IL-17A by CD4 T cells in CNS,EAE in B6 mice,not significantly different
same,CCR6 expression on CD4 T cells,EAE in B6 mice; spleen,lowered
same,CD4+CD25hi cells (number),EAE in B6 mice; spleen,reduced
same,CD4+CD25hi cells frequency,EAE in B6 mice; spleen,not altered
same,CD49d expression on CD4 T cells,EAE in B6 mice; spleen,"lowered CCR6, but not CD49d"
same,total number of recently activated CD4 T cells (CD69 and CD44),EAE in B6 mice; spleen,decreased
same,total cell number and pyknotic cells compared to controls,[4],did not show any differences
same,OPC differentiation into oligodendrocytes (EGFP positive cells) compared to negative control (DMSO),[4]; all tested concentrations except the lowest concentration (1^−6 μM),significant increase in OPC differentiation into oligodendrocytes; also recorded: dose dependent increase
same,"clinical benefit (myelin imaging, EDSS, visual acuity) compared to placebo controls",[5],Substantial clinical benefit
same,symptoms of EAE,EAE in SJL mice,significantly reduces the symptoms of EAE
same,activity detected at RARs,RARα,minimal activity
same,Efficacy (% of 1 μM IRX4204) RXRγ,RXRγ,0.09 ± 0.011 % of 1 μM IRX4204
same,activation of the Nurr1/RXR permissive heterodimer,Nurr1/RXR,selectively activates
